22 compounds from US7879876B2, “Sulfonamide derivatives and use thereof for the modulation of metalloproteinases” (Merck Serono SA, priority 2005, dated 2011) can be followed below.

The target in assay [1] is human ADAM17 (TACE) (Homo sapiens, UniProt P78536). The assay can be described thus: TACE enzyme inhibition assay. It is filed as biochemical. The protocol:
Compounds of the invention were tested to assess their activities as inhibitors of MMP-1, MMP-2, MMP-9, MMP-14, MMP-12 and TACE. MMP-9 Assay Protocol
Compounds of the invention can be tested for inhibitory activity against human ADAM17 in an assay using human Mca-(endo-1a-Dap(Dnp)-TNF-alpha(−5 to +6)amide as substrate (FEBS Letters, 2000, 275-279).
Stock solutions are prepared as followed: • Assay Buffer: 20 mM Hepes pH 7.5 (Fluka) containing 0.05% Brij 35 (Fluka) • Substrate: 6.1 mM human Mca-(endo-1a-Dap(Dnp)-TNF-alpha(−5 to +6)amide (Bachem) stock solution in 100% DMSO (stored at −20° C.); diluted to 5 μM in assay buffer. • Enzyme: Recombinant human ADAM17, appropriately diluted in assay buffer (1.5 μg/ml).
Test Compounds are prepared initially as 10 mM compound solution in 100% DMSO, diluted to 1 mM in 100% DMSO, then serially diluted 3-fold in 100% DMSO across a 96-well microtitre plate. Assay concentration range is typically between 100 μM to 0.01 nM. The assay is performed in a total volume of 100 μL per well in 96-well microtitre plates. Appropriate concentrations of test compounds dissolved in 10 μL of DMSO are added to the wells, followed by substrate solution (50 μL, 5 μM prepared by dilution of DMSO stock in assay buffer) and enzyme solution (40 μL). For each as say ten concentrations of test compound are examined in […]. Control wells lack either enzyme or test compound. The reactions are incubated at room temperature for 1.5 hours. The fluorescence at 405 nm is measured immediately with a fluorometer using 355 nm excitation, without stopping the reaction.
The effect of the test compound is determined from the dose response curve generated by the 10 duplicate concentrations of inhibitor. The IC50 (the concentration of compound required to give a 50% decrease in enzyme activity) is obtained by fitting data to the equation, Y=a+((b−a)/(1+(c/X)^d)). (Y=inhibition achieved for a particular dose; X=the dose in nM; a=minimum y or zero % inhibition; b=maximum y or 100% inhibition; c=is the IC50; d=is the slope). The result is rounded to one significant figure.

Assay [2] concerns the target T1, gelatinase A (MMP-2) (Homo sapiens, UniProt P08253).
T1 sequence (P08253 110-660): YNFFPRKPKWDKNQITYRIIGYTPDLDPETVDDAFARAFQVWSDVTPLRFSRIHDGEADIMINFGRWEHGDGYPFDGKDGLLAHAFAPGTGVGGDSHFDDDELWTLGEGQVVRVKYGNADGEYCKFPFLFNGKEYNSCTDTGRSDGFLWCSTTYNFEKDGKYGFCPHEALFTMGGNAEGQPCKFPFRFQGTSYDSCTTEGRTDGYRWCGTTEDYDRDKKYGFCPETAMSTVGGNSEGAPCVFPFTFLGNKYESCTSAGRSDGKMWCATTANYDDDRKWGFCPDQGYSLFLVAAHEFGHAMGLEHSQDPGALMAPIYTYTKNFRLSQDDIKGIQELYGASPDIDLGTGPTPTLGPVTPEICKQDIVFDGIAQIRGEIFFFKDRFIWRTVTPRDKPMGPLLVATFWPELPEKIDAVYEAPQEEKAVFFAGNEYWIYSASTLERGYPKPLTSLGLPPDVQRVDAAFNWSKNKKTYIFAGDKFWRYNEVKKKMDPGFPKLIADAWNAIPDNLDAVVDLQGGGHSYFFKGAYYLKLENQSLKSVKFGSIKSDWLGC
Briefly: MMP-2 enzyme inhibition assay (coumarin-labelled peptide substrate). It is filed as biochemical. Conditions: read-out: IC50 MMP2. The method in brief:
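Recombinant human MMP-2, APMA-activated if necessary, run as for the MMP-9 protocol: McaPLGLDpaAR substrate (8 μM working dilution) in 100 mM Tris-HCl pH 7.6, 100 mM NaCl, 10 mM CaCl2, 0.05% Brij 35; ten 3-fold concentrations (100 μM–5.1 nM) in duplicate, 2 h at 37° C. Fluorescence ex 320/em 405 nm, unstopped; IC50 from four-parameter fit.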

The term IC50 denotes the concentration that inhibits the measured activity by half.

Sequence of human ADAM17 (TACE) (P78536 215-824): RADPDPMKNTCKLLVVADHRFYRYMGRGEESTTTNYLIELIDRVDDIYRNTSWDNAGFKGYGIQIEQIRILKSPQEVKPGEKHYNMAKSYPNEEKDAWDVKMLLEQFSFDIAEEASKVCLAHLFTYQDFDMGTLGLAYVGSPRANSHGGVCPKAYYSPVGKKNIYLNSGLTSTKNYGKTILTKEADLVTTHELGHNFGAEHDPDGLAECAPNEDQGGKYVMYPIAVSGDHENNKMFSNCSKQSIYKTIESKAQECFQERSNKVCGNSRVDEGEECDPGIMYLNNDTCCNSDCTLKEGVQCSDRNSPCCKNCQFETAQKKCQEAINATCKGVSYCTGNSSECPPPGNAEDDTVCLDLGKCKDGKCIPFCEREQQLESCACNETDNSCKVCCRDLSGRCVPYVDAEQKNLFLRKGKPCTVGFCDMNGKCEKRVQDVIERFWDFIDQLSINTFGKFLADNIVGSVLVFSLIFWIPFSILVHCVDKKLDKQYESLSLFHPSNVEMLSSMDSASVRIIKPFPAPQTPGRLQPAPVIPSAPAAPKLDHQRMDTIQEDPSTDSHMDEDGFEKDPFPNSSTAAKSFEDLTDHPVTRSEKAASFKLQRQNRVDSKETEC

In the case of `O=CN(O)[C@H](CS(=O)(=O)N1CCc2ccc(C(F)(F)F)cc2C1)[C@H]1CCCO1` [Example 27, N-hydroxy-N-((1S)-1-[(2R)-tetrahydrofuran-2-yl]-2-{[7-(trifluoromethyl)-3,4-dihydroisoquinolin-2(1H)-yl]sulfonyl}ethyl)formamide], the results for the IC50 in assay [1] and in assay [2] were 506 nM and 58 nM, respectively.
In the case of `CC(C)c1ccc2c(c1)CCN(S(=O)(=O)CC(C1CCCC1)N(O)C=O)C2` (centres unmarked) [Example 81, N-{1-cyclopentyl-2-[(6-isopropyl-3,4-dihydroisoquinolin-2(1H)-yl)sulfonyl]ethyl}-N-hydroxyformamide], the IC50 is over 5000 nM in assay [1] and 63 nM in assay [2].
For `O=CN(O)C(CS(=O)(=O)N1CCc2ccc(Cl)cc2C1)C1CC1` (centres unmarked) [Example 73, N-{2-[(7-chloro-3,4-dihydroisoquinolin-2(1H)-yl)sulfonyl]-1-cyclopropylethyl}-N-hydroxyformamide], in that order: 88 nM and 187 nM.
With `O=CN(O)C(COCc1ccccc1)CS(=O)(=O)N1CCc2ccc(C(F)(F)F)cc2C1` (centres unmarked) [Example 59, N-[2-(benzyloxy)-1-({[7-(trifluoromethyl)-3,4-dihydro-isoquinolin-2(1H)-yl]sulfonyl}methyl)ethyl]-N-hydroxyformamide], the IC50 in assay [1] was over 5000 nM; in assay [2] it was 83 nM.
The matching figures for `O=CN(O)C(CS(=O)(=O)N1CCc2ccc(-c3ccsc3)cc2C1)C1CCCC1` (centres unmarked) [Example 68, N-(1-cyclopentyl-2-{[7-(3-thienyl)-3,4-dihydroisoquinolin-2(1H)-yl]sulfonyl}ethyl)-N-hydroxyformamide]: 268 nM and 221 nM.
For `CC(C)(C)CC(CS(=O)(=O)N1CCc2cc(Cl)c(Cl)cc2C1)N(O)C=O` (centres unmarked) [Example 42, N-(1-{[(6,7-dichloro-3,4-dihydroisoquinolin-2(1H)-yl)-sulfonyl]methyl}-3,3-dimethylbutyl)-N-hydroxyformamide], in that order: 611 nM and 31 nM.
The matching figures for `O=CN(O)C(CS(=O)(=O)N1CCc2ccc(F)cc2C1)C1CCCC1` (centres unmarked) [Example 60, N-{1-cyclopentyl-2-[(7-fluoro-3,4-dihydroisoquinolin-2(1H)-yl)sulfonyl]ethyl}-N-hydroxyformamide]: 79 nM and 411 nM.
Regarding `O=CN(O)[C@@H](CS(=O)(=O)N1CCc2ccc(Cl)cc2C1)[C@H]1CCCO1` [Example 22, N-{(1R)-2-[(7-chloro-3,4-dihydroisoquinolin-2(1H)-yl)sulfonyl]-1-[(2R)-tetrahydrofuran-2-yl]ethyl}-N-hydroxyformamide], the IC50 in assay [1] is 389 nM; in assay [2], 470 nM.
As for `O=CN(O)[C@@H](CS(=O)(=O)N1CCc2ccc(C(F)(F)F)cc2C1)[C@H]1CCCO1` [Example 32, N-hydroxy-N-((1R)-1-[(2R)-tetrahydrofuran-2-yl]-2-{[7-(trifluoromethyl)-3,4-dihydroisoquinolin-2(1H)-yl]sulfonyl}ethyl)formamide], the IC50 in assay [1] and in assay [2] was over 5000 nM in each case.
Take `O=CN(O)C(CS(=O)(=O)N1Cc2ccc(F)cc2C1)C1CCCC1` (centres unmarked) [Example 80, N-{1-cyclopentyl-2-[(5-fluoro-1,3-dihydro-2H-isoindol-2-yl)sulfonyl]ethyl}-N-hydroxyformamide]: the IC50 was over 5000 nM in assay [1] and 474 nM in assay [2].
Consider `O=CN(O)C(CS(=O)(=O)N1CCc2ccc(Cl)cc2C1)C1CCCC1` (centres unmarked) [Example 21, N-{2-[(7-chloro-3,4-dihydroisoquinolin-2(1H)-yl)sulfonyl]-1-cyclopentylethyl}-N-hydroxyformamide], for which the IC50 in assay [1] was determined as 56 nM; in assay [2], 103 nM.
For `O=CN(O)C(CS(=O)(=O)N1Cc2ccccc2C1)C1CC1` (centres unmarked) [Example 72, N-[1-cyclopropyl-2-(1,3-dihydro-2H-isoindol-2-ylsulfonyl)-ethyl]-N-hydroxyformamide], in that order: 683 nM and 510 nM.
For `O=CN(O)C(CS(=O)(=O)N1CCc2ccc(-c3cccc(O)c3)cc2C1)C1CCCC1` (centres unmarked) [Example 70, N-(1-cyclopentyl-2-{[7-(3-hydroxyphenyl)-3,4-dihydroisoquinolin-2(1H)-yl]sulfonyl}ethyl)-N-hydroxyformamide], in that order: over 5000 nM and 1560 nM.
The matching figures for `CC(C)(C)C(CS(=O)(=O)N1CCc2ccc(Cl)cc2C1)N(O)C=O` (centres unmarked) [Example 65, N-(1-{[(7-chloro-3,4-dihydroisoquinolin-2(1H)-yl)sulfonyl]methyl}-2,2-dimethylpropyl)-N-hydroxyformamide]: 490 nM and 277 nM.
In the case of `O=CN(O)C(CS(=O)(=O)N1CCc2ccc(C(F)(F)F)cc2C1)C1CCCC1` (centres unmarked) [Example 82, N-(1-cyclopentyl-2-{[7-(trifluoromethyl)-3,4-dihydro-isoquinolin-2(1H)-yl]sulfonyl}ethyl)-N-hydroxyformamide], the IC50 in assay [1] was over 5000 nM; in assay [2], 348 nM.
For `CC(C)(C)OC(=O)N1CCC[C@@H]1[C@@H](CS(=O)(=O)N1CCc2cc(Cl)c(Cl)cc2C1)N(O)C=O` (racemic) [Example 44, tert-butyl (2RS)-2-{(1SR)-2-[(6,7-dichloro-3,4-dihydro-isoquinolin-2(1H)-yl)sulfonyl]-1-[formyl(hydroxy)amino]ethyl}pyrrolidine-1-carboxylate], in that order: 371 nM and 91 nM.
In the case of `COc1cc2c(cc1OC)CN(S(=O)(=O)CC(CCc1ccccc1)N(O)C=O)CC2` (centres unmarked) [Example 12, N-(1-{[(6,7-dimethoxy-3,4-dihydroisoquinolin-2(1H)-yl)sulfonyl]methyl}-3-phenylpropyl)-N-hydroxyformamide], the results for the IC50 in assay [1] and in assay [2] were 1220 nM and over 5000 nM, respectively.
For `CC(C)c1ccc2c(c1)CCN(S(=O)(=O)CC(C1CC1)N(O)C=O)C2` (centres unmarked) [Example 85, N-{1-cyclopropyl-2-[(6-isopropyl-3,4-dihydroisoquinolin-2(1H)-yl)sulfonyl]ethyl}-N-hydroxyformamide], in that order: over 5000 nM and 78 nM.
For `O=CN(O)C(CS(=O)(=O)N1CCc2cc(Cl)c(Cl)cc2C1)C1CCCC1` (centres unmarked) [Example 77, N-{1-cyclopentyl-2-[(6,7-dichloro-3,4-dihydroisoquinolin-2(1H)-yl)sulfonyl]ethyl}-N-hydroxyformamide], in that order: 229 nM and 31 nM.
As for `CC(C)(C)c1ccc2c(c1)CN(S(=O)(=O)CC(COCc1ccccc1)N(O)C=O)CC2` (centres unmarked) [Example 57, N-(2-(benzyloxy)-1-{[(7-tert-butyl-3,4-dihydroisoquinolin-2(1H)-yl)sulfonyl]methyl}ethyl)-N-hydroxyformamide], the IC50 in assay [1] and in assay [2] was over 5000 nM each time.
Regarding `O=CN(O)C(CS(=O)(=O)N1CCc2ccc(-c3ccncc3)cc2C1)C1CCCC1` (centres unmarked) [Example 79, N-{1-cyclopentyl-2-[(7-pyridin-4-yl-3,4-dihydroisoquinolin-2(1H)-yl)sulfonyl]ethyl}-N-hydroxyformamide], the IC50 in assay [1] came out at 587 nM; in assay [2], 67 nM.
The matching figures for `CC(C)c1ccc2c(c1)CCN(S(=O)(=O)C[C@H]([C@H]1CCCO1)N(O)C=O)C2` [Example 45, N-hydroxy-N-{(1S)-2-[(6-isopropyl-3,4-dihydroisoquinolin-2(1H)-yl)sulfonyl]-1-[(2R)-tetrahydrofuran-2-yl]ethyl}formamide]: 813 nM and 25 nM.
